{
  "source": "patent US20220259172A1",
  "about": "“CHEMICAL INHIBITORS OF ID PROTEINS FOR THE TREATMENT OF CANCER AND OTHER DISEASES” (Universität Heidelberg, priority 2019, published 2022)",
  "key": {"B16-F10 melanoma cells": {"tested_on": "B16-F10 melanoma cells", "assay": "Tumor growth and initiation in vivo, B16-F10", "set-up": "species or system mice", "description": "B16-F10 (A) or Ret (B) cells were co-injected with Matrigel into syngeneic mice. […] Numbers indicate the number of animals with a tumor in each group. Bar graphs show the mean tumor volume in each group at the day when the first animal had reached the legal tumor size limit. Kaplan-Meier curves show the percentage of tumor-free animals in percent as a measure for tumor initiation.\nCells were harvested using trypsin/EDTA and washed in PBS. The indicated numbers of living melanoma cells were subcutaneously injected into the flank of syngeneic mice in 100 μl PBS. For co-injection experiments, the indicated number of living cells was resuspended in 100 μl Matrigel HC (10 mg/ml, #354262, Corning Inc.), and subcutaneously injected into the flank. Tumor volume was calculated using the formula 4/3π (d1/2×d2/2×d3/2), where d1−d3 represents the diameter of the tumor in three dimensions. […] All animal experiments were approved by the local authorities, and performed according to the German legal requirements. Tumor initiating cell (TIC) frequency and p-values were calculated using ELDA software.\nTo investigate the anti-tumor properties of the selected Id1/Id3-inhibiting compounds, groups of experimental mice (8 per group) were injected subcutaneously with B16-F10 or Ret melanoma cells. […] Melanoma initiation and growth was assessed over a period of 90 days."}, "[1]": {"tested_on": "mouse embryonic fibroblasts (MEFs)", "assay": "Proliferation/cytotoxicity in mouse embryonic fibroblasts, 2D culture", "format": "cell-based"}, "B16-F10 and Ret cells": {"tested_on": "B16-F10 and Ret cells", "assay": "3D Matrigel assay", "format": "cell-based, murine", "conditions": "daily application in 3D Matrigel", "experimental": "X8166 inhibits melanoma cell growth in 3D Matrigel. B16-F10 (A) or Ret (B) control or CRISPR/Cas9 Id1/Id3 cells were seeded in 3D Matrigel (10 mg/ml) and grown for six days before analysis. B16-F10 or Ret cells were treated daily with DMSO or X8166 (7.5 μM). The number of colonies at six positions of each well of a 48-well plate were counted in each z-level (5-10 z-levels were imaged per position).\nCells (2×10^3) were mixed with Matrigel to obtain 150 μl of a cell/Matrigel (10 mg/ml, #354262, Corning Inc.) solution, which was seeded into a well of a 48-well plate. The gel was allowed to solidify at 37° C. for 30 min and was subsequently overlaid with 500 μl complete growth medium. After six days of culture, images were captured using a Leica DMI6000 B microscope at six different x/y positions in every well, and a minimum of five horizontal layers (z levels) at each position, in order to get every cell in focus for image analysis. Image analysis was performed using Fiji software as follows: First, images were transformed into 8-bit files (pixel values from 0 (black) to 255 (white)). The scale was set to distance=0, known=0, pixel=1, and unit=pixel global. Outlines of each colony in focus in every image were detected using the integrated semi-automatic magic wand tool. Once outlines were matching the morphology of the colony were obtained, the colony was filled white (pixel value 255) using the fill function. Thresholding of pixel values (threshold=255) allowed black (background) and white (colonies) images of the filled colonies to be obtained. The “Analyze particles” function was applied to measure the area and perimeter of colonies with a minimum pixel size of 1500. An invasive index was calculated as follows: Invasive index=(perimeter)^2/area, resulting in a unitless measure of invasiveness."}, "Id1": {"tested_on": "Id1", "assay": "Id1 expression in HUVECs, Western blot", "format": "cell-based, Human", "experimental": "Human umbilical vein endothelial cells (HUVECs) and lymphatic endothelial cells (LECs) were cultivated in EBM™-2 Endothelial Cell Growth Basal Medium supplemented with EGM™-2 MV Microvascular Endothelial Cell Growth Medium-2 SingleQuots™ Kit (both Lonza, catalogue numbers CC-3156 and CC4176, respectively), hereafter referred to as endothelial cell growth medium. HUVECs and LECs were cultivated in the presence of the indicated concentrations of X6632, or with DMSO as a solvent control. After 24 hours, cells were harvested. Lysates were western blotted and probed with antibodies against Id1 and Id3. Western blots probed with vinculin antibodies served as loading controls.\nWestern blot analysis was performed using standard methods. The following antibodies were used for protein detection: Id1 (195-14, CalBioreagents), Id3 (17-3, CalBioreagents), β-actin (AC-15, Sigma Aldrich), Vinculin (VIN-11-5, Sigma Aldrich). Protein bands were detected using HRP conjugated secondary antibodies (P0447, P0448, Agilent Technologies) and enhanced chemiluminescence (32106, Thermo Fisher Scientific).\nThe effect of X6632 on Id1 and Id3 expression in cultivated proliferating human umbilical vein endothelial cells (HUVECs) was investigated. […] LDN-193189, an antagonist of BMP receptor isotypes ALK2 and ALK3, served as a positive control reference for inhibition of Id1 and Id3 expression."}, "LECs": {"tested_on": "LECs", "assay": "LEC proliferation, CyQUANT assay", "format": "cell-based", "conditions": "dose-dependent manner (FIG. 11)", "experimental": "HUVECs (A) and LECs (B) were cultivated in endothelial cell growth medium. Cells were incubated with the indicated concentrations of X6632. Incubation with DMSO served as a solvent control. After cultivation for the indicated time periods, cells were stained with a CyQUANT™ Cell Proliferation Assay Kit (Thermo Fisher Scientific). The CyQUANT™ dye emits fluorescence after excitation at 485 nm when incorporated in double-stranded DNA, allowing DNA content to be used as a measure of cell numbers. Plates were incubated for 15 min at 37° C. to allow the CyQUANT™ dye to incorporate into DNA. Fluorescence was measured by excitation at 485 nm and detection of emission at 530 nm at 25 positions in each well (signal intensity) using a Tecan Infinite M200 reader."}, "HUVEC spheroids": {"tested_on": "HUVEC spheroids", "assay": "Sprouting from HUVEC spheroids in collagen", "format": "cell-based, Human", "conditions": "X6632 10 μM; 50 ng/ml hVEGF-A; 24 h; collagen type I", "experimental": "HUVECs or LECs were resuspended in endothelial cell growth medium containing 20% methylcellulose at 1.6×10^4 cells per millilitre. Twenty-five microliters of cell suspension were pipetted as drops on non-adherent plastic plates, which were then inverted to form hanging drop cultures. Plates were incubated for 24 h at 37° C. Spheroids were harvested, then embedded in collagen type I (2 mg/ml) containing 0.5% methylcellulose. After polymerization, gels were cultivated with endothelial cell growth medium containing 50 ng/ml hVEGF-A in the presence or absence of X6632 (10 μM), or DMSO as a solvent control. Sprouting was assessed after cultivation for 24 h using microscope-based image acquisition. Representative images are shown.\nTo determine whether this is the case, the impact of […] on angiogenic and lymphangiogenic sprouting from endothelial cell spheriods was investigated. To this end, HUVECs and LECs were grown as spheriods in hanging drop cultures. The spheroids were then embedded in collagen. Sprouting from the spheroids in the presence and absence of X6632 was monitored using microscope-based image analysis."}},
  "note": "“Also recorded” adds a separate entry of the source.",
  "data": [
    {"smiles": "CCCCc1cc2c(O)cc(C3(CCCC)CCCCC3)cc2oc1=O", "note": "[X6632, 7-(1-Butylcyclohexyl)-5-hydroxy-3-butyl-2H-chromen-2-one]", "values": [
      {"measurement": "Melanoma growth and initiation", "setting": "B16-F10 melanoma cells; B16-F10 cells co-injected with Matrigel, syngeneic mice, daily i.p. first 14 days, compared to DMSO", "value": "significantly inhibit; also recorded: potent inhibitors"},
      {"measurement": "Number of animals with tumors", "setting": "B16-F10 melanoma cells; B16-F10 cells, 8 mice per group, assessed over 90 days", "value": "three"},
      {"measurement": "Tumor growth and initiation compared to CBD", "setting": "B16-F10 melanoma cells; B16-F10 experiment, daily i.p. first 14 days", "value": "significantly more effective"},
      {"measurement": "Proliferation / cytotoxicity, non-transformed MEFs", "setting": "[1]", "value": "strongly inhibited"},
      {"measurement": "3D assays could not be performed with daily application, reason", "setting": "B16-F10 and Ret cells", "value": "cytotoxicity"},
      {"measurement": "Expression of Id1 protein", "setting": "Id1; HUVECs, indicated concentrations, 24 hours (FIG. 10B)", "value": "inhibits"},
      {"measurement": "Id1 protein expression", "setting": "Id1; proliferating HUVECs, 24 hours (FIG. 10A)", "value": "completely abrogated"},
      {"measurement": "Proliferation of LECs", "setting": "LECs", "value": "inhibited"},
      {"measurement": "Sprouting from HUVEC spheroids", "setting": "HUVEC spheroids", "value": "substantially inhibited"}
    ]}
  ]
}
